Converted amounts (≈) assume the structure as drawn.
What was measured:
[1] = system: Bacillus cereus; test: Antibacterial activity against Bacillus cereus after 24 hrs by microdilution method; assay type: functional
[2] = system: Bacillus cereus; test: Bactericidal activity against Bacillus cereus incubated for 24 hrs followed by serial sub-cultivation and measured after 24 hrs by microdilution method; assay type: functional
[3] = system: Micrococcus flavus; test: Antibacterial activity against Micrococcus flavus ATCC 10240 after 24 hrs by microdilution method; assay type: functional; conditions: ATCC 10240, 24 h
[4] = system: Micrococcus flavus; test: Bactericidal activity against Micrococcus flavus ATCC 10240 incubated for 24 hrs followed by serial sub-cultivation and measured after 24 hrs by microdilution method; assay type: functional
[5] = system: Staphylococcus aureus; test: Antibacterial activity against Staphylococcus aureus ATCC 6538 after 24 hrs by microdilution method; assay type: functional; conditions: ATCC 6538, 24 h
[6] = system: Staphylococcus aureus; test: Bactericidal activity against Staphylococcus aureus ATCC 6538 incubated for 24 hrs followed by serial sub-cultivation and measured after 24 hrs by microdilution method; assay type: functional
[7] = system: Listeria monocytogenes; test: Antibacterial activity against Listeria monocytogenes NCTC 7973 after 24 hrs by microdilution method; assay type: functional; conditions: NCTC 7973, 24 h
[8] = system: Listeria monocytogenes; test: Bactericidal activity against Listeria monocytogenes NCTC 7973 incubated for 24 hrs followed by serial sub-cultivation and measured after 24 hrs by microdilution method; assay type: functional
[9] = system: Escherichia coli; test: Antibacterial activity against Escherichia coli ATCC 35210 after 24 hrs by microdilution method; assay type: functional; conditions: ATCC 35210, 24 h
[10] = system: Escherichia coli; test: Bactericidal activity against Escherichia coli ATCC 35210 incubated for 24 hrs followed by serial sub-cultivation and measured after 24 hrs by microdilution method; assay type: functional
[11] = system: Enterobacter cloacae; test: Antibacterial activity against Enterobacter cloacae after 24 hrs by microdilution method; assay type: functional
[12] = system: Enterobacter cloacae; test: Bactericidal activity against Enterobacter cloacae incubated for 24 hrs followed by serial sub-cultivation and measured after 24 hrs by microdilution method; assay type: functional
[13] = system: Pseudomonas aeruginosa; test: Antibacterial activity against Pseudomonas aeruginosa ATCC 27853 after 24 hrs by microdilution method; assay type: functional; conditions: ATCC 27853, 24 h
[14] = system: Pseudomonas aeruginosa; test: Bactericidal activity against Pseudomonas aeruginosa ATCC 27853 incubated for 24 hrs followed by serial sub-cultivation and measured after 24 hrs by microdilution method; assay type: functional
[15] = system: Salmonella typhimurium; test: Antibacterial activity against Salmonella typhimurium ATCC 13311 after 24 hrs by microdilution method; assay type: functional, Salmonella enterica subsp. enterica serovar Typhimurium; conditions: Salmonella enterica, ATCC 13311, 24 h
[16] = system: Salmonella typhimurium; test: Bactericidal activity against Salmonella typhimurium ATCC 13311 incubated for 24 hrs followed by serial sub-cultivation and measured after 24 hrs by microdilution method; assay type: functional, Salmonella enterica subsp. enterica serovar Typhimurium
[17] = system: Penicillium ochrochloron; test: Antifungal activity against Penicillium ochrochloron ATCC 9112 after 72 hrs by serial dilution method; assay type: functional; conditions: ATCC 9112, 72 h
[18] = system: Aspergillus versicolor; test: Antifungal activity against Aspergillus versicolor ATCC 11730 after 72 hrs by serial dilution method; assay type: functional; conditions: ATCC 11730, 72 h
[19] = system: Aspergillus fumigatus; test: Antifungal activity against Aspergillus fumigatus after 72 hrs by serial dilution method; assay type: functional
[20] = system: Aspergillus fumigatus; test: Fungicidal activity against Aspergillus fumigatus incubated for 72 hrs followed by serial sub-cultivation for 72 hrs and measured after 72 hrs by serial dilution method; assay type: functional
[21] = system: Aspergillus versicolor; test: Fungicidal activity against Aspergillus versicolor ATCC 11730 incubated for 72 hrs followed by serial sub-cultivation for 72 hrs and measured after 72 hrs by serial dilution method; assay type: functional
[22] = system: Aspergillus ochraceus; test: Antifungal activity against Aspergillus ochraceus ATCC 12066 after 72 hrs by serial dilution method; assay type: functional; conditions: ATCC 12066, 72 h
[23] = system: Aspergillus ochraceus; test: Fungicidal activity against Aspergillus ochraceus ATCC 12066 incubated for 72 hrs followed by serial sub-cultivation for 72 hrs and measured after 72 hrs by serial dilution method; assay type: functional
[24] = system: Aspergillus niger; test: Antifungal activity against Aspergillus niger ATCC 6275 after 72 hrs by serial dilution method; assay type: functional; conditions: ATCC 6275, 72 h
[25] = system: Aspergillus niger; test: Fungicidal activity against Aspergillus niger ATCC 6275 incubated for 72 hrs followed by serial sub-cultivation for 72 hrs and measured after 72 hrs by serial dilution method; assay type: functional
[26] = system: Trichoderma viride; test: Antifungal activity against Trichoderma viride IAM 5061 after 72 hrs by serial dilution method; assay type: functional; conditions: IAM 5061, 72 h
[27] = system: Trichoderma viride; test: Fungicidal activity against Trichoderma viride IAM 5061 incubated for 72 hrs followed by serial sub-cultivation for 72 hrs and measured after 72 hrs by serial dilution method; assay type: functional
[28] = system: Talaromyces funiculosus; test: Antifungal activity against Penicillium funiculosum ATCC 36839 after 72 hrs by serial dilution method; assay type: functional; conditions: ATCC 36839, 72 h
[29] = system: Talaromyces funiculosus; test: Fungicidal activity against Penicillium funiculosum ATCC 36839 incubated for 72 hrs followed by serial sub-cultivation for 72 hrs and measured after 72 hrs by serial dilution method; assay type: functional
[30] = system: Penicillium ochrochloron; test: Fungicidal activity against Penicillium ochrochloron ATCC 9112 incubated for 72 hrs followed by serial sub-cultivation for 72 hrs and measured after 72 hrs by serial dilution method; assay type: functional
[31] = system: Candida albicans; test: Antifungal activity against Candida albicans after 72 hrs by serial dilution method; assay type: functional
[32] = system: Candida albicans; test: Fungicidal activity against Candida albicans incubated for 72 hrs followed by serial sub-cultivation for 72 hrs and measured after 72 hrs by serial dilution method; assay type: functional

SMILES	MIC [1] [µM]	MBC99.5 [2] [×10⁻² umol/ml]	MIC [3] [µM]	MBC99.5 [4] [×10⁻² umol/ml]	MIC [5] [µM]	MBC99.5 [6] [×10⁻² umol/ml]	MIC [7] [µM]	MBC99.5 [8] [×10⁻² umol/ml]	MIC [9] [µM]	MBC99.5 [10] [×10⁻² umol/ml]	MIC [11] [µM]	MBC99.5 [12] [×10⁻² umol/ml]	MIC [13] [µM]	MBC99.5 [14] [×10⁻² umol/ml]	MIC [15] [µM]	MBC99.5 [16] [×10⁻² umol/ml]	MIC [17] [µM]	MIC [18] [µM]	MIC [19] [µM]	MFC99.5 [20] [×10⁻² umol/ml]	also measured
CC1(C)S[C@@H]2[C@H](NC(=O)[C@H](N)c3ccccc3)C(=O)N2[C@H]1C(=O)O [AMPICILLIN]	248 (≈ 86.7 µg/mL)	37.2	248 (≈ 86.7 µg/mL)	37.2	248 (≈ 86.7 µg/mL)	37.2	372 (≈ 130 µg/mL)	74.4	372 (≈ 130 µg/mL)	49.2	248 (≈ 86.7 µg/mL)	37.2	744 (≈ 260 µg/mL)	124	248 (≈ 86.7 µg/mL)	49.2					
c1ccc(-c2ccc(C(c3ccccc3)n3ccnc3)cc2)cc1 (centres undefined) [BIFONAZOLE]																	640 (≈ 199 µg/mL)	320 (≈ 99.3 µg/mL)	480 (≈ 149 µg/mL)	64	MFC99.5 [21]: 64 ×10⁻² umol/ml; MIC [22]: 480 µM (≈ 149 µg/mL); MFC99.5 [23]: 80 ×10⁻² umol/ml; MIC [24]: 480 µM (≈ 149 µg/mL); MFC99.5 [25]: 64 ×10⁻² umol/ml; MIC [26]: 640 µM (≈ 199 µg/mL); MFC99.5 [27]: 80 ×10⁻² umol/ml; MIC [28]: 640 µM (≈ 199 µg/mL); MFC99.5 [29]: 80 ×10⁻² umol/ml; MFC99.5 [30]: 80.5 ×10⁻² umol/ml; MIC [31]: 320 µM (≈ 99.3 µg/mL); MFC99.5 [32]: 64 ×10⁻² umol/ml
CC(=O)N1CCN(c2ccc(OCC3COC(Cn4ccnc4)(c4ccc(Cl)cc4Cl)O3)cc2)CC1 (centres undefined) [KETOCONAZOLE]																	1900 (≈ 1010 µg/mL)	380 (≈ 202 µg/mL)	380 (≈ 202 µg/mL)	95	MFC99.5 [21]: 95 ×10⁻² umol/ml; MIC [22]: 280 µM (≈ 149 µg/mL); MFC99.5 [23]: 38 ×10⁻² umol/ml; MIC [24]: 380 µM (≈ 202 µg/mL); MFC99.5 [25]: 95 ×10⁻² umol/ml; MIC [26]: 1900 µM (≈ 1010 µg/mL); MFC99.5 [27]: 285 ×10⁻² umol/ml; MIC [28]: 380 µM (≈ 202 µg/mL); MFC99.5 [29]: 95 ×10⁻² umol/ml; MFC99.5 [30]: 285 ×10⁻² umol/ml; MIC [31]: 380 µM (≈ 202 µg/mL); MFC99.5 [32]: 56 ×10⁻² umol/ml
CN[C@@H]1[C@H](O[C@H]2[C@H](O[C@H]3[C@H](O)[C@@H](O)[C@H](N=C(N)N)[C@@H](O)[C@@H]3N=C(N)N)O[C@@H](C)[C@]2(O)C=O)O[C@@H](CO)[C@H](O)[C@H]1O [STREPTOMYCIN]	43 (≈ 25 µg/mL)	8.6	86 (≈ 50 µg/mL)	17.2	172 (≈ 100 µg/mL)	34.4	258 (≈ 150 µg/mL)	51.6	172 (≈ 100 µg/mL)	34.4	43 (≈ 25 µg/mL)	8.6	172 (≈ 100 µg/mL)	34.4	172 (≈ 100 µg/mL)	34.4					
